Test results reported in ChEMBL document CHEMBL4038324, “Amidoalkylindoles as Potent and Selective Cannabinoid Type 2 Receptor Agonists with in Vivo Efficacy in a Mouse Model of Multiple Sclerosis” (J Med Chem, 2017).
Active and inactive are the calls of the source. No cut-off for these calls is given here.

How the values were obtained:
Cannabinoid receptor 2 [1] = molecular target: T1, Cannabinoid receptor 2 (Homo sapiens, UniProt P34972); test: Agonist activity at human CB2 receptor expressed in CHO cells assessed as induction of Ca2+ flux after 10 mins by Fluor-4 AM dye based assay; format: functional, cell-based
T1 sequence (P34972 whole entry): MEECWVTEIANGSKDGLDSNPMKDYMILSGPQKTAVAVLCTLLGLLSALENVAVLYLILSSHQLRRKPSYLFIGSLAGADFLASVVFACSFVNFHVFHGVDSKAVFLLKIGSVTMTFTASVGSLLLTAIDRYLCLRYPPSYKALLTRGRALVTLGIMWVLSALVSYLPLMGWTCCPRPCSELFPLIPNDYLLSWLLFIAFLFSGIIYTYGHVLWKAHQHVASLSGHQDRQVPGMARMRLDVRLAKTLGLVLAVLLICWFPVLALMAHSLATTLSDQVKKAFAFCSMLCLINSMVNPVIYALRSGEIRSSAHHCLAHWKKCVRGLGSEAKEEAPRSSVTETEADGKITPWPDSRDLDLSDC

Cannabinoid receptor 2 [2] = molecular target: T1, Cannabinoid receptor 2; test: Agonist activity at human CB2 receptor expressed in CHO cells assessed as induction of Ca2+ flux after 10 mins by Fluor-4 AM dye based assay relative to CP55940; format: functional, cell-based
Cannabinoid receptor 2 [3] = molecular target: T1, Cannabinoid receptor 2; test: Antagonist activity at human CB2 receptor expressed in CHO cells assessed as inhibition of CP55940-induced Ca2+ flux at 10 uM preincubated for 10 mins followed by agonist addition by Fluor-4 AM dye based assay; format: functional, cell-based
Cannabinoid receptor 1 [4] = molecular target: T2, Cannabinoid receptor 1 (Homo sapiens, UniProt P21554); test: Agonist activity at human CB1 receptor expressed in CHO cells assessed as induction of Ca2+ flux at 10 uM after 10 mins by Fluor-4 AM dye based assay; format: cell-based
T2 sequence (P21554 whole entry): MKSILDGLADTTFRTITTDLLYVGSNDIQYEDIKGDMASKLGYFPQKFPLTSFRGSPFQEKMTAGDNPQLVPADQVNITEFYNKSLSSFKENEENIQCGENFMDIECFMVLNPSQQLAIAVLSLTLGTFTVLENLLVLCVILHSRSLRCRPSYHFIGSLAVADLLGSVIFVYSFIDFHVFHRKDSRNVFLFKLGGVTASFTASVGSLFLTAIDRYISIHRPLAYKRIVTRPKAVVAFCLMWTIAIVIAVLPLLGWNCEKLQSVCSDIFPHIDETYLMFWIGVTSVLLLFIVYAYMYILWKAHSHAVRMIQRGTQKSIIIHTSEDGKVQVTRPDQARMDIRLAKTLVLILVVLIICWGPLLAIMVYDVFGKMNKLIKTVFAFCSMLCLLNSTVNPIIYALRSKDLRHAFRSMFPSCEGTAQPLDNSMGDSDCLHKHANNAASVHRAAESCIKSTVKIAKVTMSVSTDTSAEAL

[5] = molecular target: T3, Cannabinoid receptor 1 (CB1) (Homo sapiens, UniProt P21554); test: Antagonist activity at human CB1 receptor expressed in CHO cells assessed as inhibition of CP55940-induced Ca2+ flux at 10 uM preincubated for 10 mins followed by agonist addition by Fluor-4 AM dye based assay; format: cell-based; conditions: CHO cells expressing human CB1 receptor
T3 sequence (P21554 whole entry): as above

Cannabinoid receptor 2 [6] = molecular target: T1, Cannabinoid receptor 2; test: Antagonist activity at human CB2 receptor expressed in CHO cells assessed as inhibition of CP55940-induced Ca2+ flux preincubated for 10 mins followed by agonist addition by Fluor-4 AM dye based assay; format: functional, cell-based
Cannabinoid receptor 2 [7] = molecular target: T1, Cannabinoid receptor 2; test: Agonist activity at human CB2 receptor expressed in CHO cells assessed as induction of Ca2+ flux at 10 uM after 10 mins by Fluor-4 AM dye based assay; format: functional, cell-based
Cannabinoid receptor 1 [8] = molecular target: Cannabinoid receptor 1 (Rattus norvegicus, UniProt P20272); test: Agonist activity at rat CB1 receptor expressed in mouse AtT20 cells by FLIPR membrane potential assay; format: cell-based
Chain of Cannabinoid receptor 1 (Rattus norvegicus, UniProt P20272) (P20272 whole entry): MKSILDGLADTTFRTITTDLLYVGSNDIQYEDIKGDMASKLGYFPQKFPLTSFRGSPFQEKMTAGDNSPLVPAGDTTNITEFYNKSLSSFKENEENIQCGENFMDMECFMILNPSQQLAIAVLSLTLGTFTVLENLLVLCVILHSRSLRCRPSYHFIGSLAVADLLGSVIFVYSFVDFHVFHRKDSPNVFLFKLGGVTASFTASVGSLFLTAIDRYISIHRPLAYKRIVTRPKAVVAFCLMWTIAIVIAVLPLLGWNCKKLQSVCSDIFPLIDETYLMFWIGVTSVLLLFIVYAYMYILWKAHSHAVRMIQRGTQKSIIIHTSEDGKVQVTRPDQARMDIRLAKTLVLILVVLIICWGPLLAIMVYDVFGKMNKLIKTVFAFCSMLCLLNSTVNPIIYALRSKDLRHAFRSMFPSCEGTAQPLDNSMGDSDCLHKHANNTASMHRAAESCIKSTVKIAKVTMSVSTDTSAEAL

Cannabinoid receptor 2 [9] = molecular target: T1, Cannabinoid receptor 2; test: Agonist activity at human N-terminal HA-tagged CB2 receptor expressed in mouse AtT20 cells by FLIPR membrane potential assay; format: cell-based
Cannabinoid receptor 1 [10] = molecular target: T2, Cannabinoid receptor 1; test: Agonist activity at human CB1 receptor expressed in CHO cells assessed as induction of Ca2+ flux after 10 mins by Fluor-4 AM dye based assay; format: cell-based
[11] = molecular target: T3, Cannabinoid receptor 1 (CB1); test: Agonist activity at human CB1 receptor expressed in CHO cells assessed as induction of Ca2+ flux after 10 mins by Fluor-4 AM dye based assay relative to CP55940; format: cell-based; conditions: CHO cells expressing human CB1 receptor

SMILES	EC50 (Cannabinoid receptor 2 [1]) [nM]	Emax (Cannabinoid receptor 2 [2])	inhibition (Cannabinoid receptor 2 [3]) [%]	Activity (Cannabinoid receptor 1 [4]) [%]	inhibition at 10 min, 10 µM [5] [%]	IC50 (Cannabinoid receptor 2 [6]) [nM]	Activity (Cannabinoid receptor 2 [7]) [%]	EC50 (Cannabinoid receptor 1 [8]) [nM]	EC50 (Cannabinoid receptor 2 [9]) [nM]	EC50 (Cannabinoid receptor 1 [10]) [nM]	Emax at 10 min [11] [%]
O=C(NC12CC3CC(CC(C3)C1)C2)c1cc2ccccc2[nH]1	980	66.7%	< 50	< 50	< 50						
CSc1cccc2c(C(=O)NC34CC5CC(CC(C5)C3)C4)cn(CCN3CCOCC3)c12	> 100000			< 50	< 50	28	< 50				
N#CCCCn1c(C(=O)NC23CC4CC(CC(C4)C2)C3)cc2ccccc21	270	61.7%	< 50	< 50	< 50						
C[S+]([O-])c1cccc2c(C(=O)NC34CC5CC(CC(C5)C3)C4)cn(CCN3CCOCC3)c12 (stereo unspecified)			< 50	< 50	< 50		< 50				
O=C(NC12CC3CC(CC(C3)C1)C2)c1cc2ccccc2n1CCCCC(F)F	92	60%	< 50	< 50	< 50						
O=C(O)CCCCn1c(C(=O)NC23CC4CC(CC(C4)C2)C3)cc2ccccc21	7130	43.3%	< 50	< 50	< 50						
Cc1cccc2c(C(=O)NC34CC5CC(CC(C5)C3)C4)c[nH]c12	500	60%	< 50	< 50	< 50						
N#CCCCCn1c(C(=O)NC23CC4CC(CC(C4)C2)C3)cc2ccccc21	75	41.7%	< 50	< 50	< 50						
NCCCCCn1c(C(=O)NC23CC4CC(CC(C4)C2)C3)cc2ccccc21	8600	93.3%	< 50	< 50	< 50						
CCCCCn1cc(C(=O)CC23CC4CC(CC(C4)C2)C3)c2ccccc21								35 to 40	29 to 89		
O=C(NC12CC3CC(CC(C3)C1)C2)c1cc2ccccc2n1CCCC(F)(F)F	490	63.3%	< 50	< 50	< 50						
O=C(NC12CC3CC(CC(C3)C1)C2)c1c(F)c2ccccc2n1CCCCCO	610	60%	< 50	< 50	< 50						
O=C(NC12CC3CC(CC(C3)C1)C2)c1cc2ccccc2n1CCCCCO	100	70%	< 50	< 50	< 50						
O=C(NC12CC3CC(CC(C3)C1)C2)c1[nH]c2ccccc2c1F	3800	83.3%	< 50	< 50	< 50						
CCCCCn1c(C(=O)NC23CC4CC(CC(C4)C2)C3)cc2ccccc21	720	53.3%	< 50	< 50	< 50						
O=C(NC12CC3CC(CC(C3)C1)C2)c1cn(CCCCO)c2ccccc12	160	68.3%	< 50		< 50					13000	58.3
N#CCCn1c(C(=O)NC23CC4CC(CC(C4)C2)C3)cc2ccccc21	150	93.3%	< 50	< 50	< 50						
Cc1cccc2c(C(=O)NC34CC5CC(CC(C5)C3)C4)cn(CCN3CCOCC3)c12		inactive	< 50		< 50		< 50			6700	63.3
O=C(NC12CC3CC(CC(C3)C1)C2)c1cc2ccccc2n1CCN1CCOC1=O	220	66.7%	< 50	< 50	< 50						
O=C(NC12CC3CC(CC(C3)C1)C2)c1cn(CC2CCOCC2)c2ccccc12	38	76.7%	< 50		< 50					84	133
O=CCCCCn1c(C(=O)NC23CC4CC(CC(C4)C2)C3)cc2ccccc21	180	73.3%	< 50	< 50	< 50						

SMILES	EC50 (Cannabinoid receptor 2 [1]) [nM]	Emax (Cannabinoid receptor 2 [2])	inhibition (Cannabinoid receptor 2 [3]) [%]	Activity (Cannabinoid receptor 1 [4]) [%]	inhibition at 10 min, 10 µM [5] [%]	IC50 (Cannabinoid receptor 2 [6]) [nM]	Activity (Cannabinoid receptor 2 [7]) [%]	EC50 (Cannabinoid receptor 1 [8]) [nM]	EC50 (Cannabinoid receptor 2 [9]) [nM]	EC50 (Cannabinoid receptor 1 [10]) [nM]	Emax at 10 min [11] [%]
O=C(NC12CC3CC(CC(C3)C1)C2)c1cn(CCCCCO)c2ccccc12	62	63.3%	< 50		< 50					4100	76.7
COCCCCCn1cc(C(=O)NC23CC4CC(CC(C4)C2)C3)c2ccccc21	82	70%	< 50	< 50	< 50						
N#CCn1cc(C(=O)NC23CC4CC(CC(C4)C2)C3)c2ccccc21	410	66.3%	< 50	< 50	< 50						
CCCCCn1cc(C(=O)C23CC4CC(CC(C4)C2)C3)c2ccccc21								35 to 40	29 to 89		
COc1ccc2c(c1)c(C(=O)NC13CC4CC(CC(C4)C1)C3)cn2CCN1CCOCC1			< 50	< 50	< 50		< 50				
O=C(NC1CCCCC1)c1cc2ccccc2n1CCCCCO	420	50%	< 50	< 50	< 50						
N#CCCCn1cc(C(=O)NC23CC4CC(CC(C4)C2)C3)c2ccccc21	31	70%	< 50		< 50					630	105
N=C(N)NCCCCCn1c(C(=O)NC23CC4CC(CC(C4)C2)C3)cc2ccccc21			< 50	< 50	< 50		< 50				
O=C(NC12CC3CC(CC(C3)C1)C2)c1cc2ccccc2n1CC1CCOCC1	410	41.7%	< 50	< 50	< 50						
N#CCCn1cc(C(=O)NC23CC4CC(CC(C4)C2)C3)c2ccccc21	180	73.3%	< 50	< 50	< 50						
O=C(NC12CC3CC(CC(C3)C1)C2)c1c(F)c2ccccc2n1CCCCO	410	46.7%	< 50	< 50	< 50						
O=C(NC1CCCC1)c1cc2ccccc2n1CCCCCO			< 50	< 50	< 50		< 50				
O=C(NC12CC3CC(CC(C3)C1)C2)c1cc2ccccc2n1CCCCCF	140	53.3%	< 50	< 50	< 50						
O=C(NC12CC3CC(CC(C3)C1)C2)c1cn(CCN2CCOCC2)c2ccccc12	59	56.7%	< 50		< 50	> 100000				3300	75
O=C(NC12CC3CC(CC(C3)C1)C2)c1c[nH]c2ccccc12	630	75%	< 50	< 50	< 50						
COc1cccc2c1c(C(=O)NC13CC4CC(CC(C4)C1)C3)cn2CCN1CCOCC1			< 50	< 50	< 50		< 50				
O=C(NC12CC3CC(CC(C3)C1)C2)c1cc2ccccc2n1CCCO	160	86.7%	< 50	< 50	< 50						
NCCCCn1c(C(=O)NC23CC4CC(CC(C4)C2)C3)cc2ccccc21	4700	86.7%	< 50	< 50	< 50						
N#CCCCCn1c(C(=O)Nc2ccccc2)cc2ccccc21	200	48.3%	< 50	< 50	< 50						
CC(C)(C)NC(=O)c1cc2ccccc2n1CCCCCO	430	51.7%	< 50	< 50	< 50						
COc1cccc2c(C(=O)NC34CC5CC(CC(C5)C3)C4)cn(CCN3CCOCC3)c12	> 100000			< 50	< 50	16	< 50				
